From US7419969B2 (Bristol-Myers Squibb Company, priority 2004, dated 2008)

Molecular target: T1, HIV-integrase (Human immunodeficiency virus type 1 group M subtype B, UniProt P04585)
T1 construct: Recombinant integrase (0.26 ng) was incubated with the beads
Assay: in-vitro activity against HIV-integrase (HIV Integrase Inhibition, SPA bead assay)
Type: biochemical
Conditions: Table 1; recombinant integrase, activity class
Method: To evaluate in-vitro activity against HIV-integrase, 5 pmole of biotin labeled substrate DNA was bound to 100 μg of Streptavidin coated PVT SPA beads (Amersham Pharmacia Biotech). Recombinant integrase (0.26 ng) was incubated with the beads for 90 min at 37° C. Unbound enzyme was removed by washing the complex followed by addition of inhibitors and […] of P33 labeled target DNA. The reaction was stopped by adding EDTA to a final concentration of 10 mM. Samples were counted in TopCountNXT (Packard) and the CPM was used as a measure of integration. The reaction condition was as described in Engelman, A. and Craigie, R. J. Vitrol. 1996, 69, 5908. The sequences of substrate and target DNA were described in Nucleic Acid Research 1994, 22, 1121.

**Q.** With `Cc1ccc(CNC(=O)c2nc3n(c(=O)c2O)CCOC32CCCC2)cc1C` [Example 22, N-[(3,4-dimethylphenyl)methyl]-6′,7′-dihydro-3′-hydroxy-4′-oxo-spiro[cyclopentane-1,9′(4′H)-pyrimido[2,1-c][1,4]oxazine]-2′-carboxamide] as the compound, how does the IC50 read?
**A.** 10 to 100 nM

**Q.** With `COc1ccc(CNC(=O)c2nc3n(c(=O)c2O)CCOC32CCCC2)cc1` [Example 23, 6′,7′-dihydro-3′-hydroxy-N-[(4-methoxyphenyl)methyl]-4′-oxo-spiro[cyclopentane-1,9′(4′H)-pyrimido[2,1-c][1,4]oxazine]-2′-carboxamide] as the compound, how does the IC50 read?
**A.** 10 to 100 nM

**Q.** `O=C(NCc1ccccc1F)c1nc2n(c(=O)c1O)CCOC21CCCC1` [Example 24, N-[(2-fluorophenyl)methyl]-6′,7′-dihydro-3′-hydroxy-4′-oxo-spiro[cyclopentane-1,9′(4′H)-pyrimido[2,1-c][1,4]oxazine]-2′-carboxamide] was tested. Which IC50 did it give?
**A.** 10 to 100 nM

**Q.** How did the IC50 turn out when `COc1ccc(CNC(=O)c2nc3n(c(=O)c2O)CCOC32CCCC2)c(OC)c1` [Example 25, N-[(2,4-dimethoxyphenyl)methyl]-6′,7′-dihydro-3′-hydroxy-4′-oxo-spiro[cyclopentane-1,9′(4′H)-pyrimido[2,1-c][1,4]oxazine]-2′-carboxamide] was run?
**A.** 10 to 100 nM

**Q.** For `O=C(NCc1cccc(F)c1)c1nc2n(c(=O)c1O)CCOC21CCCC1` [Example 26, N-[(3-fluorophenyl)methyl]-6′,7′-dihydro-3 ′-hydroxy-4′-oxo-spiro[cyclopentane-1,9′(4′H)-pyrimido[2,1-c][1,4]oxazine]-2′-carboxamide], which IC50 is on record?
**A.** 10 to 100 nM

**Q.** `Cc1ccc(CNC(=O)c2nc3n(c(=O)c2O)CCOC32CCCC2)cc1F` [Example 27, N-[(3-fluoro-4-methylphenyl)methyl]-6′,7′-dihydro-3′-hydroxy-4′-oxo-spiro[cyclopentane-1,9′(4′H)-pyrimido[2,1-c][1,4]oxazine]-2′-carboxamide] was tested. Which IC50 did it give?
**A.** 1 to 10 nM

**Q.** Which IC50 does the source give for `CN(C)S(=O)(=O)c1cc(F)ccc1CNC(=O)c1nc2n(c(=O)c1O)CCOC21CCCC1` [Example 28, N-[[(2-(dimethylamino)sulfonyl]-4-fluorophenyl)methyl]-6′,7′-dihydro-3′-hydroxy-4′-oxo-spiro[cyclopentane-1,9′(4′H)-pyrimido[2,1-c][1,4]oxazine]-2′-carboxamide] here?
**A.** 1 to 10 nM

**Q.** Which IC50 does the source give for `O=C(NCc1cc(F)ccc1-n1cncn1)c1nc2n(c(=O)c1O)CCOC21CCCC1` [Example 29, N-[[5-fluoro-2-(1H-1,2,4-triazol-1-yl)phenyl]methyl]-6′,7′-dihydro-3′-hydroxy-4′-oxo-spiro[cyclopentane-1,9′(4′H)-pyrimido[2,1-c][1,4]oxazine]-2′-carboxamide] here?
**A.** 1 to 10 nM

**Q.** With `O=C(NCCc1ccc(F)cc1)c1nc2n(c(=O)c1O)CCOC21CCCC1` [Example 30, N-[2-(4-fluorophenyl)ethyl]-6′,7′-dihydro-3′-hydroxy-4′-oxo-spiro[cyclopentane-1,9′(4H)-pyrimido[2,1-c][1,4]oxazine]-2′-carboxamide] as the compound, how does the IC50 read?
**A.** 10 to 100 nM

**Q.** With `O=C(NCCCc1ccc(F)cc1)c1nc2n(c(=O)c1O)CCOC21CCCC1` [Example 31, N-[3-(4-fluorophenyl)propyl]-6′,7′-dihydro-3′-hydroxy-4′-oxo-spiro[cyclopentane-1,9′(4′H)-pyrimido[2,1-c][1,4]oxazine]-2′-carboxamide] as the compound, how does the IC50 read?
**A.** 10 to 100 nM

**Q.** For `Cc1ncnn1-c1cc(F)ccc1CNC(=O)c1nc2n(c(=O)c1O)CCOC21CCCC1` [Example 32, N-[[4-fluoro-2-(5-methyl-1H-1,2,4-triazol-1-yl)phenyl]methyl]-6′,7′-dihydro-3′-hydroxy-4′-oxo-spiro[cyclopentane-1,9′(4′H)-pyrimido[2,1-c][1,4]oxazine]-2′-carboxamide], which IC50 is on record?
**A.** 1 to 10 nM

**Q.** How did the IC50 turn out when `O=C(NCc1ccccc1-n1cncn1)c1nc2n(c(=O)c1O)CCOC21CCCC1` [Example 33, 6′,7′-dihydro-3′-hydroxy-4′-oxo-N-[[2-(1H-1,2,4-triazol-1-yl)phenyl]methyl]-spiro[cyclopentane-1,9′(4′H)-pyrimido[2,1-c][1,4]oxazine]-2′-carboxamide] was run?
**A.** 1 to 10 nM

**Q.** Which IC50 does the source give for `O=C(NCc1ccc(F)cc1N1CCCCS1(=O)=O)c1nc2n(c(=O)c1O)CCOC21CCCC1` [Example 34, N-[[4-fluoro-2-(tetrahydro-1,1-dioxido-2H-1,2-thiazin-2-yl)phenyl]methyl]-6′,7′-dihydro-3′-hydroxy-4′-oxo-spiro[cyclopentane-1,9′(4′H)-pyrimido[2,1-c][1,4]oxazine]-2′-carboxamide] here?
**A.** 1 to 10 nM

**Q.** How did the IC50 turn out when `O=C(NCc1ccccc1N1CCCCS1(=O)=O)c1nc2n(c(=O)c1O)CCOC21CCCC1` [Example 35, 6′,7′-dihydro-3′-hydroxy-4′-oxo-N-[[2-(tetrahydro-1,1-dioxido-2H-1,2-thiazin-2-yl)phenyl]methyl]-spiro[cyclopentane-1,9′(4′H)-pyrimido[2,1-c][1,4]oxazine]-2′-carboxamide] was run?
**A.** 10 to 100 nM

**Q.** For `O=C(NCc1ccc(F)cc1)c1nc2n(c(=O)c1O)CCOC21CCOC1` (stereo not shown) [Example 36, N-[(4-fluorophenyl)methyl]-4,5,6′,7′-tetrahydro-3′-hydroxy-4′-oxo-spiro[furan-3(2H),9′(4′H)-pyrimido[2,1-c][1,4]oxazine]-2′-carboxamide], which IC50 is on record?
**A.** 1 to 10 nM

**Q.** Which IC50 does the source give for `Cc1cc(CNC(=O)c2nc3n(c(=O)c2O)CCOC32CCOC2)ccc1F` (stereo not shown) [Example 37, N-[(4-fluoro-3-methylphenyl)methyl]-4,5,6′,7′-tetrahydro-3′-hydroxy-4′-oxo-spiro[furan-3(2H),9′(4′H)-pyrimido[2,1-c][1,4]oxazine]-2′-carboxamide] here?
**A.** 1 to 10 nM

**Q.** `O=C(NCc1ccc(F)cc1-n1cncn1)c1nc2n(c(=O)c1O)CCOC21CCOC1` (stereo not shown) [Example 38] was tested. Which IC50 did it give?
**A.** 1 to 10 nM

**Q.** `CSc1cc(F)ccc1CNC(=O)c1nc2n(c(=O)c1O)CCOC21CCOC1` (stereo not shown) [Example 39, N-[[4-fluoro-2-(methylthio)phenyl]methyl]-4,5,6′,7′-tetrahydro-3′-hydroxy-4′-oxo-spiro[furan-3(2H),9′(4′H)-pyrimido[2,1-c][1,4]oxazine]-2′-carboxamide] was tested. Which IC50 did it give?
**A.** 1 to 10 nM

**Q.** Which IC50 does the source give for `O=C(NCc1ccc(F)cc1)c1nc2n(c(=O)c1O)CCOC21CCOCC1` [Example 40, N-[(4-fluorophenyl)methyl]-2,3,5,6,6′,7′-hexahydro-3′-hydroxy-4′-oxo-spiro[4H-pyran-4,9′(4′H)-pyrimido[2,1-c][1,4]oxazine]-2′-carboxamide] here?
**A.** 1 to 10 nM

**Q.** How did the IC50 turn out when `O=C(NCc1ccc(F)cc1-n1cncn1)c1nc2n(c(=O)c1O)CCOC21CCOCC1` [Example 41] was run?
**A.** 1 to 10 nM

**Q.** For `O=C(NCc1ccc(F)cc1N1CCCCS1(=O)=O)c1nc2n(c(=O)c1O)CCOC21CCOCC1` [Example 42, N-[[4-fluoro-2-(tetrahydro-1,1-dioxido-2H-1,2-thiazin-2-yl)phenyl]methyl]-2,3,5,6,6′,7′-hexahydro-3′-hydroxy-4′-oxo-spiro[4H-pyran-4,9′(4′H)-pyrimido[2,1-c][1,4]oxazine]-2′-carboxamide], which IC50 is on record?
**A.** 1 to 10 nM

**Q.** With `O=C(NCc1ccccc1N1CCCCS1(=O)=O)c1nc2n(c(=O)c1O)CCOC21CCOCC1` [Example 43, N-[[2-(tetrahydro-1,1-dioxido-2H-1,2-thiazin-2-yl)phenyl]methyl]-2,3,5,6,6′,7′-hexahydro-3′-hydroxy-4′-oxo-spiro[4H-pyran-4,9′(4′H)-pyrimido[2,1-c][1,4]oxazine]-2′-carboxamide] as the compound, how does the IC50 read?
**A.** 10 to 100 nM
